assay: Inhibition of Pseudomonas aeruginosa AmpC

Row | IC50 [µM] | Compound
1 | > 100 | C1=NC2(CCc3ccc(-c4ccccc4)cc3C2)CN1 (stereo in doubt)
2 | > 100 | O=C(c1nc(-c2ccccc2)cs1)N1CCC(c2ccccn2)C1 (stereo in doubt)
3 | 15 | C1=NC2(CCc3ccc(-c4ccccc4)cc3C2)CN1 (stereo in doubt; 1)
4 | 43 | O=C(c1nc(-c2ccccc2)cs1)N1CCC(c2ccccn2)C1 (stereo in doubt; 2)

— ChEMBL document CHEMBL4602622, “Serendipitous discovery of aryl boronic acids as β-lactamase inhibitors” (Bioorg Med Chem Lett, 2020)
